# Calls of active or inactive are those of the source. The calls are words filed in the database; no cut-off is given here.
# Legend:
# [1] = tested on: Escherichia coli; assay: Antibacterial activity against Escherichia coli after 18 to 24 hrs by microbroth dilution method; type: functional; details: for MIC: Escherichia coli; on IZ: test concentration or dose not given here
# [2] = tested on: Pseudomonas putida; assay: Antibacterial activity against Pseudomonas putida after 18 to 24 hrs by microbroth dilution method; type: functional; details: for MIC: Pseudomonas putida; on IZ: test concentration or dose not given here
# [3] = tested on: Klebsiella pneumoniae; assay: Antibacterial activity against Klebsiella pneumoniae after 18 to 24 hrs by microbroth dilution method; type: functional; details: for MIC: Klebsiella pneumoniae; on IZ: test concentration or dose not given here
# [4] = tested on: Bacillus subtilis; assay: Antibacterial activity against Bacillus subtilis after 18 to 24 hrs by microbroth dilution method; type: functional; details: for MIC: Bacillus subtilis; on IZ: test concentration or dose not given here
# [5] = tested on: Staphylococcus aureus; assay: Antibacterial activity against Staphylococcus aureus after 18 to 24 hrs by microbroth dilution method; type: functional; details: for MIC: Staphylococcus aureus; on IZ: test concentration or dose not given here
# [6] = tested on: MDA-MB-231; assay: Cytotoxicity against human MDA-MB-231 cells after 48 hrs by MTT assay; type: functional, cell-based; details: MDA-MB-231, 48 h
# [7] = Cytotoxicity against human PC3 cells after 48 hrs by MTT assay; type: functional, cell-based; details: PC-3, 48 h
# [8] = tested on: HeLa; assay: Cytotoxicity against human HeLa cells after 48 hrs by MTT assay; type: functional, cell-based
# [9] = Cytotoxicity against human C4-2 cells after 48 hrs by MTT assay; type: functional, cell-based; details: LNCaP C4-2, 48 h
# [10] = Cytotoxicity against human HEK293T cells after 48 hrs by MTT assay; type: cell-based; details: HEK-293T
# [11] = Cytotoxicity against human BxPC3 cells after 48 hrs by MTT assay; type: functional, cell-based; details: BXPC-3, 48 h
# [12] = tested on: PC-3; assay: Induction of apoptosis in human PC3 cells assessed as increase in cleaved PARP1 level after 48 hrs by immunoblot analysis; type: functional, cell-based
# [13] = tested on: Escherichia coli; assay: Bactericidal activity against Escherichia coli at 3 times MIC after 2 hrs by time-kill analysis; type: functional
# [14] = tested on: Pseudomonas putida; assay: Bactericidal activity against Pseudomonas putida at 3 times MIC after 2 hrs by time-kill analysis; type: functional
# [15] = tested on: Bacillus subtilis; assay: Bactericidal activity against Bacillus subtilis at 3 times MIC after 2 hrs by time-kill analysis; type: functional
# [16] = tested on: Staphylococcus aureus; assay: Bactericidal activity against Staphylococcus aureus at 3 times MIC after 2 hrs by time-kill analysis; type: functional
# [17] = Stability of compound at pH 4.5 up to 48 hrs by HPLC analysis; type: physicochemical; details: buffer, pH 4.5, 48 h
# [18] = Stability of compound at pH 7.4 up to 48 hrs by HPLC analysis; type: physicochemical; details: buffer, pH 7.4, 48 h
# [19] = tested on: Escherichia coli; assay: Bactericidal activity against Escherichia coli assessed as maximum bactericidal reduction at 3 times MIC after 3 hrs by time-kill analysis; type: functional, organism-based
# [20] = tested on: Pseudomonas putida; assay: Bactericidal activity against Pseudomonas putida assessed as maximum bactericidal reduction at 3 times MIC after 3 hrs by time-kill analysis; type: functional, organism-based
# [21] = Aqueous solubility of compound after 12 hrs by shake-flask method; type: physicochemical; details: water
# [22] = tested on: Escherichia coli; assay: Antimicrobial activity against Escherichia coli; type: functional
# [23] = tested on: Bacillus subtilis; assay: Antimicrobial activity against Bacillus subtilis; type: functional
# [24] = tested on: Pseudomonas aeruginosa; assay: Antimicrobial activity against Pseudomonas aeruginosa; type: functional
# [25] = tested on: P388; assay: Cytotoxicity against mouse P388 cells; type: functional, cell-based
# [26] = tested on: A549; assay: Cytotoxicity against human A549 cells; type: functional, cell-based
# [27] = tested on: Micrococcus luteus; assay: Antimicrobial activity against Sarcina lutea; type: functional
# [28] = tested on: Corynebacterium xerosis; assay: Antimicrobial activity against Corynebacterium xerosis; type: functional
# [29] = target: Cyclin-dependent kinase 4 (Homo sapiens, UniProt P11802); assay: Inhibition of CDK4 (unknown origin)
# [30] = target: Receptor tyrosine-protein kinase erbB-2 (Homo sapiens, UniProt P04626); assay: Inhibition of c-erbB2 (unknown origin)
# Sequence of Receptor tyrosine-protein kinase erbB-2 (P04626 whole entry): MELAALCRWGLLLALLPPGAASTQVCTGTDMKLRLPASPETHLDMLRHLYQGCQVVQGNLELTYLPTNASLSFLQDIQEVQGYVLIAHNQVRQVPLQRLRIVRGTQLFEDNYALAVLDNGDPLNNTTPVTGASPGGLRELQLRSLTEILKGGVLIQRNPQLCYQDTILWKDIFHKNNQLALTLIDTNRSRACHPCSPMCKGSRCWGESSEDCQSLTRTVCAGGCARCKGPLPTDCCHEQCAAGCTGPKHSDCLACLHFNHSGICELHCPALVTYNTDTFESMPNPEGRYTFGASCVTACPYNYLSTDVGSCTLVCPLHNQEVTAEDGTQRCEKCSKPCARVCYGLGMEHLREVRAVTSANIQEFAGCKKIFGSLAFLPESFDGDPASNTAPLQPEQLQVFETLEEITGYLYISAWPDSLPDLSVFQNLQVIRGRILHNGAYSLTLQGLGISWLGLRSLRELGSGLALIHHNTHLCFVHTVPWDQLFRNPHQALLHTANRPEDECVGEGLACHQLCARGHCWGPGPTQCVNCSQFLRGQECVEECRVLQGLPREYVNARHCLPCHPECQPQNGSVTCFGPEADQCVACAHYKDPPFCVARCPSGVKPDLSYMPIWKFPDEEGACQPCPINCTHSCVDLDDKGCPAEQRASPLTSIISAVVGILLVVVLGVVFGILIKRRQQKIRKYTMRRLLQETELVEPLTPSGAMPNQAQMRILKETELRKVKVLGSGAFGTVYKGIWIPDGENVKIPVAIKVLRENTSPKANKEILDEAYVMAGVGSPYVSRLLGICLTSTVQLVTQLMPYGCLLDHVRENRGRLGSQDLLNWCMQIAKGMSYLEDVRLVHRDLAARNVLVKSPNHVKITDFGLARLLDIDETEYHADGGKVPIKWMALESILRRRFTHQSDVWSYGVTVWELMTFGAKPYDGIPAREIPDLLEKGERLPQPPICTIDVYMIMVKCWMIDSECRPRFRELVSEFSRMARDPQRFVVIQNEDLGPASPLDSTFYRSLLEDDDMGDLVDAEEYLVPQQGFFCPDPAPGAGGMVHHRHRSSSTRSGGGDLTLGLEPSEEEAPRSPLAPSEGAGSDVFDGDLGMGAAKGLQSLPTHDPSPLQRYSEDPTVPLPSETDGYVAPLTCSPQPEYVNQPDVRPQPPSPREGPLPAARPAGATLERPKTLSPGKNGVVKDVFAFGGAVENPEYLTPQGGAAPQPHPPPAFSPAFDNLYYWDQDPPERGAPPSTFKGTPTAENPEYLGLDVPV
# Sequence of Cyclin-dependent kinase 4 (P11802 whole entry): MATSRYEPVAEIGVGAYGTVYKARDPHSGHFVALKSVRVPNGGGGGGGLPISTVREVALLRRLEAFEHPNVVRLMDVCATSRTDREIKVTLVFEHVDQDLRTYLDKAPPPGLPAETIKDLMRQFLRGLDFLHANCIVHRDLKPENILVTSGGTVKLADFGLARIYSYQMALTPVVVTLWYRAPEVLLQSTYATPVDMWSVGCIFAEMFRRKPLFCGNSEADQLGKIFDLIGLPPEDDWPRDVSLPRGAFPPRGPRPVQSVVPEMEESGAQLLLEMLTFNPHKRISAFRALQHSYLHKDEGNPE
SMILES,inhibition zone (IZ) [1],MIC [1],inhibition zone (IZ) [2],MIC [2],inhibition zone (IZ) [3],MIC [3],inhibition zone (IZ) [4],MIC [4],inhibition zone (IZ) [5],MIC [5],IC50 [6],IC50 [7],IC50 [8],IC50 [9],IC50 [10],IC50 [11],also measured
O=C(NCCc1c[nH]c2ccccc12)C(=O)c1cn(Cc2ccc(F)cc2)c2ccccc12,15 mm,100 µg/mL,15 mm,100 µg/mL,13 mm,> 100 µg/mL,12 mm,> 100 µg/mL,14 mm,> 100 µg/mL,> 100 µM,> 100 µM,> 100 µM,> 100 µM,> 100 µM,> 100 µM,–
O=C(NCCc1c[nH]c2ccccc12)C(=O)c1c[nH]c2cc(F)ccc12,15 mm,100 µg/mL,14 mm,> 100 µg/mL,14 mm,> 50 µg/mL,–,–,–,–,21.1 µM,24.1 µM,22.3 µM,46 µM,69.8 µM,29.9 µM,Activity [12]: Active
O=C(NCCc1c[nH]c2ccccc12)C(=O)c1cn(Cc2ccc(Cl)cc2)c2ccc(F)cc12,14 mm,100 µg/mL,14 mm,100 µg/mL,12 mm,> 100 µg/mL,13 mm,> 50 µg/mL,13 mm,100 µg/mL,> 100 µM,> 100 µM,> 100 µM,> 100 µM,> 100 µM,> 100 µM,–
O=C(NCCc1c[nH]c2ccccc12)C(=O)c1cn(Cc2ccc(Cl)cc2)c2ccccc12,18 mm,12.5 µg/mL,18 mm,12.5 µg/mL,18 mm,> 12.5 µg/mL,17 mm,> 25 µg/mL,17 mm,> 25 µg/mL,> 100 µM,> 100 µM,> 100 µM,> 100 µM,> 100 µM,> 100 µM,Activity [13]: 80%; Activity [14]: 80%; Activity [15]: >80%; Activity [16]: >65%; Stability [17]: Stable; Stability [18]: Stable; Activity [19]: Active; Activity [20]: Active
Cn1cc(C(=O)C(=O)NCCc2c[nH]c3ccccc23)c2ccccc21,18 mm,12.5 µg/mL,17 mm,> 25 µg/mL,17 mm,25 µg/mL,18 mm,> 25 µg/mL,16 mm,50 µg/mL,> 100 µM,> 100 µM,> 100 µM,> 100 µM,> 100 µM,> 100 µM,Activity [13]: 80%; Activity [14]: 80%; Activity [15]: >80%; Activity [16]: >65%; Stability [17]: Stable; Stability [18]: Stable; Activity [19]: Active; Activity [20]: Active
CCn1cc(C(=O)C(=O)NCCc2c[nH]c3ccccc23)c2ccccc21,14 mm,> 50 µg/mL,12 mm,> 100 µg/mL,13 mm,> 100 µg/mL,14 mm,100 µg/mL,14 mm,100 µg/mL,> 100 µM,> 100 µM,> 100 µM,> 100 µM,> 100 µM,> 100 µM,–
COc1cccc2c1C(=O)c1c(O)c3c(c(O)c1C2=O)C[C@@](O)(C(=O)CO)C[C@@H]3O[C@H]1C[C@H](N)[C@H](O)[C@H](C)O1 [DOXORUBICIN],–,–,–,–,–,–,–,–,–,–,–,9.5 µM,–,1.85 µM,3.1 µM,13 µM,–
O=C(NCCc1c[nH]c2ccccc12)C(=O)c1c[nH]c2ccc(F)cc12,20 mm,12.5 µg/mL,18 mm,12.5 µg/mL,18 mm,12.5 µg/mL,18 mm,> 12.5 µg/mL,17 mm,25 µg/mL,> 100 µM,> 100 µM,> 100 µM,> 100 µM,> 100 µM,> 100 µM,Activity [13]: 80%; Activity [14]: 80%; Activity [15]: >80%; Activity [16]: >65%; Stability [17]: Stable; Stability [18]: Stable; solubility thermodynamic at 12 h [21]: 0.3 µg/mL; Activity [19]: Active; Activity [20]: Active
O=C(N[C@H](CO)[C@H](O)c1ccc([N+](=O)[O-])cc1)C(Cl)Cl [CHLORAMPHENICOL],22 mm,–,21 mm,–,20 mm,–,22 mm,–,21 mm,–,–,–,–,–,–,–,–
CC(c1c[nH]c(N)n1)c1ccc(O)c2[nH]cc(-c3cnc(-c4c[nH]c5cc(Br)ccc45)c(O)n3)c12.O=C(O)C(F)(F)F (stereo unspecified) [DRAGMACIDINS],–,–,–,–,–,–,–,–,–,–,–,–,–,–,–,–,MIC [22]: 15.6 µg/mL; MIC [23]: 3.1 µg/mL; MIC [24]: 62.5 µg/mL; IC50 [25]: 1.4 µg/mL; IC50 [26]: 4.5 µg/mL
COc1ccc2c(C(=O)C(=O)NCCc3c[nH]c4ccccc34)c[nH]c2c1,14 mm,> 50 µg/mL,15 mm,> 50 µg/mL,15 mm,100 µg/mL,15 mm,> 100 µg/mL,14 mm,100 µg/mL,> 100 µM,> 100 µM,> 100 µM,> 100 µM,> 100 µM,> 100 µM,–
O=C(NCCc1c[nH]c2ccccc12)C(=O)c1c[nH]c2ccccc12,15 mm,50 µg/mL,14 mm,50 µg/mL,14 mm,100 µg/mL,15 mm,50 µg/mL,15 mm,50 µg/mL,48.7 µM,38.5 µM,48.9 µM,71.5 µM,97.7 µM,64 µM,Activity [12]: Active
O=C(NCCc1c[nH]c2ccccc12)C(=O)c1cn(Cc2ccc(Cl)cc2)c2ccc(Br)cc12,15 mm,100 µg/mL,14 mm,> 100 µg/mL,14 mm,> 50 µg/mL,14 mm,100 µg/mL,13 mm,100 µg/mL,> 100 µM,> 100 µM,> 100 µM,> 100 µM,> 100 µM,> 100 µM,–
O=C1N=C(C(=O)c2c[nH]c3ccc(Br)cc23)N/C1=C\c1c[nH]c2ccccc12,–,–,–,–,–,–,–,–,–,–,–,–,–,–,–,–,MIC [27]: 16 µg/mL; MIC [28]: 16 µg/mL
COc1ccc2[nH]cc(C(=O)C(=O)CCCc3c[nH]c4ccccc34)c2c1,15 mm,100 µg/mL,15 mm,100 µg/mL,15 mm,50 µg/mL,–,–,–,–,> 100 µM,> 100 µM,> 100 µM,> 100 µM,> 100 µM,> 100 µM,–
COc1ccc2c(C(=O)C(=O)NCCc3c[nH]c4ccccc34)cn(Cc3ccc(Cl)cc3)c2c1,15 mm,50 µg/mL,16 mm,50 µg/mL,15 mm,> 50 µg/mL,–,–,–,–,> 100 µM,> 100 µM,> 100 µM,> 100 µM,> 100 µM,> 100 µM,–
O=C(NCCc1c[nH]c2ccccc12)C(=O)c1c[nH]c2ccc(Br)cc12,16 mm,50 µg/mL,14 mm,100 µg/mL,15 mm,100 µg/mL,14 mm,100 µg/mL,15 mm,> 100 µg/mL,> 100 µM,> 100 µM,> 100 µM,> 100 µM,> 100 µM,> 100 µM,–
O=C1N=C(C(=O)c2c[nH]c3ccccc23)N/C1=C\c1c[nH]c2cc(O)ccc12,–,–,–,–,–,–,–,–,–,–,–,–,–,–,–,–,IC50 [29]: 33.8 µM; IC50 [30]: 20 µM
COc1ccc2c(c1)c(C(=O)C(=O)NCCc1c[nH]c3ccccc13)cn2Cc1ccc(Cl)cc1,13 mm,> 100 µg/mL,15 mm,50 µg/mL,–,–,–,–,–,–,> 100 µM,> 100 µM,> 100 µM,> 100 µM,> 100 µM,> 100 µM,–
